# Laboratory results published in patent US3956328A, “S-triazolo(1,5-a)pyridine derivative” (Kyorin Seiyaku Kabushiki Kaisha, priority 1973, dated 1976).
# Where “and” joins values, the source holds several entries; their conditions need not be identical. Equal entries are not always repeated. Entries after “also recorded” stand apart in the source; their conditions may differ.
# Experiments:
# [1] = test system: guinea pig tracheal chain strips; assay: Anti histaminic action: histamine-induced contraction of guinea pig tracheal chain strips; conditions: 4×10^^-5 M; Tyrodes solution
# [2] = test system: guinea pig ileum; assay: Schultz-Dale reaction in guinea pig ileum sensitized actively with egg albumin; conditions: actively-sensitized guinea pig ileum
# Protocol: Male guinea pigs are actively sensitized and their ileum preparations are treated by Schultz-Dales method (J. Pharmacol. Exp. Ther., 4, 167, 1913). […] These preceeding pharmacological properties of the present compound are due to triazolo [1,5-a]pyridine.
# [3] = test system: BSA induced asthma in guinea pigs; assay: Inhibitory action on BSA-induced (experimentally allergic) asthma attack in passively sensitized guinea pigs; type: in vivo, guinea pig; parameters: key to z1 (statistical value vs non treatment): Mann-Whitney U z statistic, treated vs non-treated; conditions: for p (statistical significance vs non treatment) / z1 (statistical value vs non treatment) / p (present compound vs homochlorcyclizine) / z2 (statistical value, present compound vs homochlorcyclizine): severity; for z1 (statistical value vs non treatment) / z2 (statistical value, present compound vs homochlorcyclizine): Mann and Whitney U test
# Protocol: The present compound is studied on asthma attacks induced by the antigen-antibody reaction in guinea pigs. The guinea pigs are sensitized passively by the injection of 0.1 to 0.3 ml /100g body weight of rabbit antiserum to BSA (bovine serum albumin) into the ear vein. Forty six hours after passive sensitization, the guinea pigs are orally given the tested compounds. Two hours after oral administration, the asthma attack is provoked by an aerosol injection (0.1 ml/min.) of 1% BSA solution in physiological saline into the plastic chamber in which the testing guinea pig is placed. The symptoms of the asthma attack are observed for 10 minutes and scored on the following shock indices. The shock indices are examined by the shock grades, No. of collapsed guinea pigs/No. of used animals and survival rate.
# The shock grades are as follows:
# 1 slight stimulation of expiration
# 2 stimulation of expiration (labored expiration)
# 3 attack of singultation
# 4 the strongest attack of collapse and struggle
# but recovery from collapse within 5 minutes
# 5 recovery from collapse within 5 to 10 minutes
# 6 interruption of expiration to death within 10
# *Statistical comparisons were carried out with the Mann and Whitneys' U
# z1 : The statistical value between non treatment and each tested
# z2 : The statistical value between the present compound and […]
# [4] = test system: histamine-induced asthma attack; assay: Inhibitory action on histamine-induced asthma attack in guinea pigs; type: in vivo, guinea pig; conditions: for z1 (statistical value): Mann and Whitney U test
# Protocol: Inhibitory actions on histamine-induced asthma attack: Male guinea pigs, of about 300 g body weight are used. Asthma attack is provoked by an aerosol of 0.2% histamine dihydrochloride solution in physiological saline for 10 minutes. The inhibitory actions are examined by shock grades, No. of collapsed guinea pigs/No. of provoked guinea pigs and survival rate. The tested compounds are orally given 2 hrs. prior to spraying of histamine solution.
# A/B: No. of collapsed guinea pigs/ No. of provoked guinea pigs.
# Statistical comparisons were carried out with the Mann and Whtineys' U
# [5] = test system: heterologous PCA in guinea pigs; assay: Heterologous passive cutaneous anaphylaxis (PCA) in guinea pigs; type: in vivo, guinea pig; conditions: 25 mg/kg po, 30 min. before challenge; rabbit antiserum to egg albumin
# Protocol: Male guinea pigs are passively sensitized by the intradermal injection of rabbit antiserum to egg albumin and challenged by the intravenous injection of egg albumin 4 hrs. after the sensitization. The test compounds are orally given 30 min. before the challenge.
# [6] = test system: anti acetylcholinergic action; assay: Anti cholinergic action
# [7] = Acute oral toxicity in rats; conditions: rat, in vivo
# Protocol: (§1) That of homochlorcyclyzine used as a standard drug is reported to be 353 mg/kg for mice.
# [8] = test system: homologous PCA in rats; assay: Homologous PCA in Wistar rats; type: in vivo, rat (Wistar); conditions: for Inhibition % of extravasation of blue dye: Wistar, egg albumin, 30 min. before challenge, 72 hrs. after sensitization
# Source text: (§2) Male wistar or SD rats are passively sensitized by Motas method (Immunology 7, 681, 1964) and challenged by the intravenous injection of wistar or SD rat antiserum to egg albumin or horse serum. The inhibitory action of the present compound on homologous PCA (induced by reaginlike, mast cell sensitizing antibody) is shown in Table 5.
# [9] = test system: ddN mice; assay: Acute oral toxicity in mice; type: in vivo; conditions: acute oral
# Protocol: as §1
# [10] = Acute oral toxicity in mice; type: in vivo; conditions: mouse, in vivo, po
# Protocol: as §1
# [11] = test system: homologous PCA in rats; assay: Homologous PCA in SD rats; type: in vivo, rat (SD)
# Source text: as §2
# [12] = antiserum 0.1 ml/100 g, 0.5 mg/kg p.o.
# [13] = antiserum 0.1 ml/100 g, 1.0 mg/kg p.o.
# [14] = antiserum 0.1 ml/100 g, 5.0 mg/kg p.o.
# [15] = antiserum 0.2 ml/100 g, 5 mg/kg p.o.
# [16] = antiserum 0.3 ml/100 g, 5 mg/kg p.o.
# [17] = 2.50 mg/kg p.o. vs homochlorcyclizine (250 mg/kg (so in the source))
compound,measurement,setting,value
"c1ccc(C(c2ccccc2)N2CCN(CCCc3nc4ccccn4n3)CC2)cc1 [the present compound, 2-[3-(4-diphenylmethyl-1-piperazinyl)propyl] -s-triazolo[1,5-a]pyridine]",inhibitory rate on histamine-induced contraction,[1],124%
same,inhibition of Schultz-Dale reaction,[2],markedly inhibits Schultz-Dale reaction
same,severe asthma attack,[3]; 5 mg/kg dose,suppresses completely severe asthma attack
same,A/B: No. of collapsed / No. of provoked guinea pigs,[3]; [12],3/6
same,"A/B: collapsed guinea pigs, percentage",[3]; [12],50%
same,Survival rate (animals),[3]; [12],5/6
same,"Survival rate, percentage",[3]; [12],83.3%
same,A/B: No. of collapsed / No. of provoked guinea pigs,[3]; [13],4/10
same,"A/B: collapsed guinea pigs, percentage",[3]; [13],40%
same,Survival rate (animals),[3]; [13],10/10
same,"Survival rate, percentage",[3]; [13],100%
same,A/B: No. of collapsed / No. of provoked guinea pigs,[3]; [14],0/6
same,"A/B: collapsed guinea pigs, percentage",[3]; [14],0%
same,Survival rate (animals),[3]; [14],6/6
same,"Survival rate, percentage",[3]; [14],100%
same,A/B: No. of collapsed / No. of provoked guinea pigs,[3]; [15],0/6
same,"A/B: collapsed guinea pigs, percentage",[3]; [15],0%
same,Survival rate (animals),[3]; [15],6/6
same,"Survival rate, percentage",[3]; [15],100%
same,A/B: No. of collapsed / No. of provoked guinea pigs,[3]; [16],0/5
same,"A/B: collapsed guinea pigs, percentage",[3]; [16],0%
same,Survival rate (animals),[3]; [16],5/5
same,"Survival rate, percentage",[3]; [16],100%
same,incidences of asthma attack vs non treated,[3]; more than 0.5 mg/kg dose,inhibits significantly
same,collapse,[3]; more than oral 5 mg/kg dose,completely inhibits collapse
same,inhibitory action on asthma attack compared with homochlorcyclizine,[3]; oral,more significant; also recorded: prohibits the asthma attack more significantly than that of homochlorocyclizine
same,shock death,[3]; oral 1 mg/kg,inhibits shock death
same,p (statistical significance vs non treatment),[3]; [12],< 0.01
same,z1 (statistical value vs non treatment),[3]; [12],2.618
same,p (statistical significance vs non treatment),[3]; [13],< 0.0001
same,z1 (statistical value vs non treatment),[3]; [13],4.032
same,p (statistical significance vs non treatment),[3]; [14],< 0.001
same,z1 (statistical value vs non treatment),[3]; [14],3.686
same,p (present compound vs homochlorcyclizine),[3]; [15],< 0.04
same,p (statistical significance vs non treatment),[3]; [15],< 0.0001
same,z1 (statistical value vs non treatment),[3]; [15],4.112
same,"z2 (statistical value, present compound vs homochlorcyclizine)",[3]; [15],2.067
same,p (present compound vs homochlorcyclizine),[3]; [16],< 0.05
same,p (statistical significance vs non treatment),[3]; [16],< 0.001
same,z1 (statistical value vs non treatment),[3]; [16],3.26
same,"z2 (statistical value, present compound vs homochlorcyclizine)",[3]; [16],2.008
same,A/B: No. of collapsed / No. of provoked guinea pigs,[4]; 0.156 mg/kg p.o.,10/10
same,"A/B: collapsed guinea pigs, number in parentheses (percentage)",[4]; 0.156 mg/kg p.o.,100
same,Survival rate (animals),[4]; 0.156 mg/kg p.o.,0/10
same,"Survival rate, number in parentheses (percentage)",[4]; 0.156 mg/kg p.o.,0
same,A/B: No. of collapsed / No. of provoked guinea pigs,[4]; 0.313 mg/kg p.o.,10/10
same,"A/B: collapsed guinea pigs, number in parentheses (percentage)",[4]; 0.313 mg/kg p.o.,100
same,Survival rate (animals),[4]; 0.313 mg/kg p.o.,10/10
same,"Survival rate, number in parentheses (percentage)",[4]; 0.313 mg/kg p.o.,100
same,significance of difference from non treatment 1,[4]; 0.313 mg/kg p.o.,markedly significant difference
same,z1 (statistical value),[4]; 0.313 mg/kg p.o. vs non treatment 1,> 5
same,A/B: No. of collapsed / No. of provoked guinea pigs,[4]; 0.625 mg/kg p.o.,9/10
same,"A/B: collapsed guinea pigs, number in parentheses (percentage)",[4]; 0.625 mg/kg p.o.,90
same,"Survival rate, number in parentheses (percentage)",[4]; 0.625 mg/kg p.o.,100
same,significance of difference from non treatment 1,[4]; 0.625 mg/kg p.o.,markedly significant difference
same,z1 (statistical value),[4]; 0.625 mg/kg p.o. vs non treatment 1,> 5
same,A/B: No. of collapsed / No. of provoked guinea pigs,[4]; 1.25 mg/kg p.o.,4/10
same,"A/B: collapsed guinea pigs, number in parentheses (percentage)",[4]; 1.25 mg/kg p.o.,40
same,Survival rate (animals),[4]; 1.25 mg/kg p.o.,10/10
same,"Survival rate, number in parentheses (percentage)",[4]; 1.25 mg/kg p.o.,100
same,significance of difference from non treatment 1,[4]; 1.25 mg/kg p.o.,markedly significant difference
same,z1 (statistical value),[4]; 1.25 mg/kg p.o. vs non treatment 1,> 5
same,A/B: No. of collapsed / No. of provoked guinea pigs,[4]; 2.50 mg/kg p.o.,1/11
same,"A/B: collapsed guinea pigs, number in parentheses (percentage)",[4]; 2.50 mg/kg p.o.,9.1
same,Survival rate (animals),[4]; 2.50 mg/kg p.o.,11/11
same,"Survival rate, number in parentheses (percentage)",[4]; 2.50 mg/kg p.o.,100
same,significance of difference from non treatment 1,[4]; 2.50 mg/kg p.o.,markedly significant difference
same,p (significant difference from homochlorcyclizine),[4]; [17],< 0.02
same,z2 (statistical value),[4]; [17],2.332
same,z1 (statistical value),[4]; 2.50 mg/kg p.o. vs non treatment 1,> 5
same,A/B: No. of collapsed / No. of provoked guinea pigs,[4]; 10.0 mg/kg p.o.,0/6
same,"A/B: collapsed guinea pigs, number in parentheses (percentage)",[4]; 10.0 mg/kg p.o.,0
same,Survival rate (animals),[4]; 10.0 mg/kg p.o.,6/6
same,"Survival rate, number in parentheses (percentage)",[4]; 10.0 mg/kg p.o.,100
same,p (significant difference from non treatment 2),[4]; 10.0 mg/kg p.o.,< 0.0005
same,p for z2 (significant difference from non treatment 1 (so in the source)),[4]; 10.0 mg/kg p.o.,< 0.005
same,z2 (statistical value),[4]; 10.0 mg/kg p.o. vs non treatment 1 (so in the source),2.844
same,z1 (statistical value),[4]; 10.0 mg/kg p.o. vs non treatment 2,3.321
same,inhibition of asthma attack compared to non treatment and homochlorcyclizine,"[4]; oral, 2 hrs. prior to histamine",markedly and significantly inhibits asthma attack
same,Inhibition % of extravasation of blue dye,[5],57.8%
same,anti acetylcholinergic action,[6],not found to have anti acetylcholinergic action
same,LD50,"[7]; male wistar rats, confidence limit 1,05l-1, 790 mg/kg",1370 mg/kg
same,LD50,"[7]; po, female wistar rats",< 450 mg/kg
same,"inhibition of reaginlike, mast cell sensitizing antibody-induced PCA","[8]; Wistar rat, oral",markedly inhibits
same,Inhibition % of extravasation of blue dye,[8]; 25 mg/kg po,64.3%
same,Inhibition % of extravasation of blue dye,[8]; 50 mg/kg po,88.8%
same,toxicity compared with homochlorcyclizine,[9],lower toxicity than that of homochlorcyclizine
same,LD50,"[10]; female ddN mice, confidence limit 418-563 mg/kg",485 mg/kg
same,LD50,"[10]; male ddN mice, confidence limit 507-768 mg/kg",625 mg/kg
same,"inhibition of reaginlike, mast cell sensitizing antibody-induced PCA","[11]; SD rat, oral",markedly inhibits
same,Inhibition % of extravasation of blue dye,"[11]; SD, horse serum, 100 mg/kg po, 3 hrs. before challenge, 48 hrs. after sensitization",94.8% and 94%
